{
  "source": "ChEMBL document CHEMBL1144969",
  "about": "“Structure-based design of thioether-bridged cyclic phosphopeptides binding to Grb2-SH2 domain” (Bioorg Med Chem Lett, 2003)",
  "note": "Starred links: 1 amine or outer side, 2 acyl side, 3 side chain; linkers in the order of their positions; H or OH if unused. Positions of bridges follow the written chain, without caps; N, C: chain ends. Non-standard residues stand in square brackets, D forms with d. Residues, ends and D or L forms follow the SMILES beside them. pY = N[C@@H](Cc1ccc(OP(=O)(O)O)cc1)C(=O)O; tBuAla = CC(C)(C)C[C@H](N)C(=O)O; X1 = O=C(C[*:2])NCCC(=O)[*:1]; hCys = N[C@@H](CCS)C(=O)O; Ac6c = NC1(C(=O)O)CCCCC1",
  "data": [
    {"molecular_target": "Growth factor receptor-bound protein 2 (Homo sapiens, UniProt P62993)", "sequence (P62993 whole entry, the tested form may be a part)": "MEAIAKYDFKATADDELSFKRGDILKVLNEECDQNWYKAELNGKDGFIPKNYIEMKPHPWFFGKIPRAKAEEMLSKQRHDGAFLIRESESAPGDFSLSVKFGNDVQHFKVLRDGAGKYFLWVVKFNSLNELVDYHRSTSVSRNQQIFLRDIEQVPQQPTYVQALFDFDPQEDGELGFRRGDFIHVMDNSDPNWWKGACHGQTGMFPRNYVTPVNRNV", "assay": "Inhibition of Growth factor receptor-bound protein 2 (Grb2) SH2 domain binding by ELISA", "units": {"IC50": "nM"}, "values": [
      {"smiles": "CSCC[C@@H]1NC(=O)CNC(=O)[C@H](C(C)C)NC(=O)[C@H](CC(N)=O)NC(=O)C2(CCCCC2)NC(=O)[C@H](Cc2ccc(OP(=O)(O)O)cc2)NC(=O)[C@H](CC(C)C)NC(=O)[C@H](C)NC(=O)CSC[C@@H](C(N)=O)NC(=O)[C@H](Cc2ccc(O)cc2)NC1=O", "note": "({CH2CO}-AL[pY][Ac6c]NVGMYC-NH2; thioether N-10)", "IC50": 3.77},
      {"smiles": "CC(C)C[C@@H]1NC(=O)[C@H](C)NC(=O)CSC[C@@H](C(N)=O)NC(=O)[C@H](Cc2ccc(O)cc2)NC(=O)[C@H](CC(C)(C)C)NC(=O)CNC(=O)[C@H](C(C)C)NC(=O)[C@H](CC(N)=O)NC(=O)[C@H](CCC(=O)O)NC(=O)[C@H](Cc2ccc(OP(=O)(O)O)cc2)NC1=O", "note": "({CH2CO}-AL[pY]ENVG[tBuAla]YC-NH2; thioether N-10)", "IC50": 14.5},
      {"smiles": "CSCC[C@@H]1NC(=O)CNC(=O)[C@H](C(C)C)NC(=O)[C@H](CC(N)=O)NC(=O)[C@H](CCC(=O)O)NC(=O)[C@H](Cc2ccc(OP(=O)(O)O)cc2)NC(=O)[C@H](CC(C)C)NC(=O)[C@H](C)NC(=O)CSC[C@@H](C(N)=O)NC(=O)[C@H](Cc2ccc(O)cc2)NC1=O", "note": "({CH2CO}-AL[pY]ENVGMYC-NH2; thioether N-10)", "IC50": 25.3},
      {"smiles": "CSCC[C@@H]1NC(=O)CNC(=O)[C@H](C(C)C)NC(=O)[C@H](CC(N)=O)NC(=O)[C@H](CCC(=O)O)NC(=O)[C@H](Cc2ccc(OP(=O)(O)O)cc2)NC(=O)[C@H](CC(C)C)NC(=O)[C@@H]2CCCN2C(=O)CSC[C@@H](C(N)=O)NC(=O)[C@H](Cc2ccc(O)cc2)NC1=O", "note": "({CH2CO}-PL[pY]ENVGMYC-NH2; thioether N-10)", "IC50": 75.7},
      {"smiles": "CC(C)C[C@@H]1NC(=O)[C@@H]2CCCN2C(=O)CSC[C@@H](C(N)=O)NC(=O)[C@H](Cc2ccc(O)cc2)NC(=O)[C@H](CC(C)(C)C)NC(=O)CNC(=O)[C@H](C(C)C)NC(=O)[C@H](CC(N)=O)NC(=O)C2(CCCCC2)NC(=O)[C@H](Cc2ccc(OP(=O)(O)O)cc2)NC1=O", "note": "({CH2CO}-PL[pY][Ac6c]NVG[tBuAla]YC-NH2; thioether N-10)", "IC50": 7.65},
      {"smiles": "CSCC[C@@H]1NC(=O)CNC(=O)[C@H](C(C)C)NC(=O)[C@H](CC(N)=O)NC(=O)[C@H](CCC(=O)O)NC(=O)[C@H](Cc2ccc(OP(=O)(O)O)cc2)NC(=O)[C@H](CC(C)C)NC(=O)CNC(=O)CSC[C@@H](C(N)=O)NC(=O)[C@H](Cc2ccc(O)cc2)NC1=O", "note": "({CH2CO}-GL[pY]ENVGMYC-NH2; thioether N-10)", "IC50": 31.5},
      {"smiles": "CC(C)C[C@@H]1NC(=O)[C@H](C)NC(=O)CSC[C@@H](C(N)=O)NC(=O)[C@H](Cc2ccc(O)cc2)NC(=O)[C@H](C)NC(=O)CNC(=O)[C@H](C(C)C)NC(=O)[C@H](CC(N)=O)NC(=O)C2(CCCCC2)NC(=O)[C@H](Cc2ccc(OP(=O)(O)O)cc2)NC1=O", "note": "({CH2CO}-AL[pY][Ac6c]NVGAYC-NH2; thioether N-10)", "IC50": 13.3},
      {"smiles": "CSCC[C@@H]1NC(=O)CNC(=O)[C@H](C(C)C)NC(=O)[C@H](CC(N)=O)NC(=O)C2(CCCCC2)NC(=O)[C@H](Cc2ccc(OP(=O)(O)O)cc2)NC(=O)[C@H](CC(C)C)NC(=O)CCNC(=O)CSC[C@@H](C(N)=O)NC(=O)[C@H](Cc2ccc(O)cc2)NC1=O", "note": "(L[pY][Ac6c]NVGMYC-NH2; linker N-9 via X1)", "IC50": 21},
      {"smiles": "CC(C)[C@@H]1NC(=O)[C@H](CC(N)=O)NC(=O)C2(CCCCC2)NC(=O)[C@H](Cc2ccc(OP(=O)(O)O)cc2)NC(=O)[C@H](Cc2ccccc2)NC(=O)[C@H](C)NC(=O)CSC[C@@H](C(N)=O)NC(=O)[C@H](Cc2ccc(O)cc2)NC(=O)[C@H](CC(C)(C)C)NC(=O)CNC1=O", "note": "({CH2CO}-AF[pY][Ac6c]NVG[tBuAla]YC-NH2; thioether N-10)", "IC50": 1.68},
      {"smiles": "CSCC[C@@H]1NC(=O)CNC(=O)[C@H](C(C)C)NC(=O)[C@H](CC(N)=O)NC(=O)[C@H](CCC(=O)O)NC(=O)[C@H](Cc2ccc(OP(=O)(O)O)cc2)NC(=O)[C@H](CC(C)C)NC(=O)CCNC(=O)CSC[C@@H](C(N)=O)NC(=O)[C@H](Cc2ccc(O)cc2)NC1=O", "note": "(L[pY]ENVGMYC-NH2; linker N-9 via X1)", "IC50": 8.26},
      {"smiles": "CSCC[C@@H]1NC(=O)CNC(=O)[C@H](C(C)C)NC(=O)[C@H](CC(N)=O)NC(=O)[C@H](CCC(=O)O)NC(=O)[C@H](Cc2ccc(OP(=O)(O)O)cc2)NC(=O)[C@H](CC(C)C)NC(=O)[C@H](C)NC(=O)CSCC[C@@H](C(N)=O)NC(=O)[C@H](Cc2ccc(O)cc2)NC1=O", "note": "({CH2CO}-AL[pY]ENVGMY[hCys]-NH2; thioether N-10)", "IC50": 54.7},
      {"smiles": "CSCC[C@@H]1NC(=O)CNC(=O)[C@H](C(C)C)NC(=O)[C@H](CC(N)=O)NC(=O)[C@H](CCC(=O)O)NC(=O)[C@H](Cc2ccc(OP(=O)(O)O)cc2)NC(=O)[C@H](CC(C)C)NC(=O)[C@H](CCC(=O)O)NC(=O)CSC[C@@H](C(N)=O)NC(=O)[C@H](Cc2ccc(O)cc2)NC1=O", "note": "({CH2CO}-EL[pY]ENVGMYC-NH2; thioether N-10)", "IC50": 137}
    ]}
  ]
}
